For data set [1], the system named is Staphylococcus aureus. In words: Antibacterial activity against Staphylococcus aureus ATCC 29213 assessed as inhibition of bacterial growth measured after 24 hrs by two-fold serial dilution method. It counts as functional.
The subject of the next data set is Klebsiella pneumoniae. Briefly: Antibacterial activity against Klebsiella pneumoniae assessed as inhibition of bacterial growth measured after 24 hrs by two-fold serial dilution method. The class given is functional.
In data set [2] the test system is Staphylococcus aureus. Briefly: Antibacterial activity against methicillin-resistant Staphylococcus aureus assessed as inhibition of bacterial growth measured after 24 hrs by two-fold serial dilution method. It counts as functional.
Data set [3] has as its system Escherichia coli. Briefly: Antibacterial activity against Escherichia coli ATCC 25922 assessed as inhibition of bacterial growth measured after 24 hrs by two-fold serial dilution method. The class given is functional.
Data set [4] can be described thus: Haemolytic activity in human erythrocytes incubated for 2 hrs. It counts as ADME, cell-based, Erythrocyte.
The test system of data set [5] is Staphylococcus aureus. In words: Antibacterial activity against Staphylococcus aureus ATCC 25923 assessed as inhibition of bacterial growth measured after 24 hrs by two-fold serial dilution method. It counts as functional.
Data set [6] concerns Pseudomonas aeruginosa. Briefly: Antibacterial activity against Pseudomonas aeruginosa assessed as inhibition of bacterial growth measured after 24 hrs by two-fold serial dilution method. The class given is functional.
In data set [7] the test system is Staphylococcus aureus. In words: Antibacterial activity against Staphylococcus aureus assessed as inhibition of bacterial growth measured after 24 hrs by two-fold serial dilution method. It counts as functional.
Data set [8] has as its system Escherichia coli. In words: Antibacterial activity against Escherichia coli assessed as inhibition of bacterial growth measured after 24 hrs by two-fold serial dilution method. The class given is functional.
A further data set concerns Acinetobacter baumannii. Briefly: Antibacterial activity against Acinetobacter baumanii assessed as inhibition of bacterial growth measured after 24 hrs by two-fold serial dilution method. The class given is functional.
In data set [9] the test system is Pseudomonas aeruginosa. In words: Antibacterial activity against Pseudomonas aeruginosa ATCC 27853 assessed as inhibition of bacterial growth measured after 24 hrs by two-fold serial dilution method. The class given is functional.
The test system of a further data set is Enterococcus faecalis. In words: Antibacterial activity against Enterococcus faecalis assessed as inhibition of bacterial growth measured after 24 hrs by two-fold serial dilution method. The class given is functional.

Each structure is given as a SMILES string. In brackets after ≈: the same amount, converted by molar mass.

As a reminder, the MIC is the smallest concentration in the dilution series that meets the test's criterion for growth inhibition. For orientation: HC50 means the concentration that lyses half of the red blood cells. High values mean weaker haemolysis, low ones stronger haemolysis. In the case of `O=C(/C(=C/c1ccccc1)n1cnc2cc(Cl)ccc2c1=O)c1nccs1`, the MIC was found to be 2 µg/mL (≈ 5.08 µM) with Staphylococcus aureus [1]; 2 µg/mL (≈ 5.08 µM) with Klebsiella pneumoniae; 4 µg/mL (≈ 10.2 µM) in the data set on Staphylococcus aureus [2]; 4 µg/mL (≈ 10.2 µM) in the data set on Escherichia coli [3]; 2 µg/mL (≈ 5.08 µM) with Staphylococcus aureus [5]; 4 µg/mL (≈ 10.2 µM) in the data set on Pseudomonas aeruginosa [6]. For the same molecule, the MIC was found to be 8 µg/mL (≈ 20.3 µM) in the data set with Staphylococcus aureus [7]; 8 µg/mL (≈ 20.3 µM) with Escherichia coli [8]; 4 µg/mL (≈ 10.2 µM) in the data set on Acinetobacter baumannii; 2 µg/mL (≈ 5.08 µM) in the data set on Pseudomonas aeruginosa [9]; 1 µg/mL (≈ 2.54 µM) with Enterococcus faecalis. The molecule further showed an HC50 at 2 h in [4] of 222 µg/mL.

Regarding `O=C(/C(=C/c1ccco1)n1cnc2cc(Cl)ccc2c1=O)c1nccs1`, the MIC was found to be 8 µg/mL (≈ 20.8 µM) in the data set with Staphylococcus aureus [1]; 64 µg/mL (≈ 167 µM) in the data set with Klebsiella pneumoniae; 32 µg/mL (≈ 83.4 µM) with Staphylococcus aureus [2]; 16 µg/mL (≈ 41.7 µM) in the data set with Escherichia coli [3]; 8 µg/mL (≈ 20.8 µM) with Staphylococcus aureus [5]; 64 µg/mL (≈ 167 µM) in the data set with Pseudomonas aeruginosa [6]. Also, the MIC amounted to 64 µg/mL (≈ 167 µM) in the data set on Staphylococcus aureus [7]; 128 µg/mL (≈ 333 µM) in the data set with Escherichia coli [8]; 16 µg/mL (≈ 41.7 µM) in the data set with Acinetobacter baumannii; 32 µg/mL (≈ 83.4 µM) with Pseudomonas aeruginosa [9]; 8 µg/mL (≈ 20.8 µM) in the data set with Enterococcus faecalis. The same molecule displayed an HC50 at 2 h in data set [4] of over 250 µg/mL.

In the case of `O=C(/C(=C/c1csc2ccccc12)n1cnc2cc(Cl)ccc2c1=O)c1nccs1`, the MIC was determined as 16 µg/mL (≈ 35.6 µM) in the data set on Staphylococcus aureus [1]; 128 µg/mL (≈ 284 µM) in the data set with Klebsiella pneumoniae; 512 µg/mL (≈ 1140 µM) in the data set on Staphylococcus aureus [2]; 16 µg/mL (≈ 35.6 µM) in the data set with Escherichia coli [3]; 256 µg/mL (≈ 569 µM) in the data set with Staphylococcus aureus [5]; 32 µg/mL (≈ 71.1 µM) with Pseudomonas aeruginosa [6]. Besides, the MIC came to 512 µg/mL (≈ 1140 µM) in the data set on Staphylococcus aureus [7]; 16 µg/mL (≈ 35.6 µM) with Escherichia coli [8]; 32 µg/mL (≈ 71.1 µM) with Acinetobacter baumannii; 16 µg/mL (≈ 35.6 µM) with Pseudomonas aeruginosa [9]; 512 µg/mL (≈ 1140 µM) in the data set with Enterococcus faecalis. In addition, the HC50 at 2 h in data set [4] was over 250 µg/mL.

Regarding `O=C(/C(=C/c1cccs1)n1cnc2cc(Cl)ccc2c1=O)c1nccs1`, the MIC in the data set on Staphylococcus aureus [1] was 16 µg/mL (≈ 40 µM); in the data set with Klebsiella pneumoniae it was 32 µg/mL (≈ 80 µM); in the data set on Staphylococcus aureus [2], 512 µg/mL (≈ 1280 µM); in the data set on Escherichia coli [3] it was 32 µg/mL (≈ 80 µM); with Staphylococcus aureus [5] it was 16 µg/mL (≈ 40 µM); in the data set on Pseudomonas aeruginosa [6], 64 µg/mL (≈ 160 µM). Besides, the MIC in the data set with Staphylococcus aureus [7] came out at 16 µg/mL (≈ 40 µM); in the data set on Escherichia coli [8] it was 512 µg/mL (≈ 1280 µM); in the data set on Acinetobacter baumannii, 512 µg/mL (≈ 1280 µM); with Pseudomonas aeruginosa [9], 64 µg/mL (≈ 160 µM); with Enterococcus faecalis, 512 µg/mL (≈ 1280 µM). Further, in data set [4], the HC50 at 2 h worked out at 211 µg/mL.

Turning to `O=C(/C(=C/c1ccc(N2CCCCC2)cc1F)n1cnc2cc(Cl)ccc2c1=O)c1nccs1`, the MIC with Staphylococcus aureus [1] turned out to be 2 µg/mL (≈ 4.04 µM); in the data set on Klebsiella pneumoniae, 512 µg/mL (≈ 1030 µM); with Staphylococcus aureus [2], 512 µg/mL (≈ 1030 µM); with Escherichia coli [3], 512 µg/mL (≈ 1030 µM); with Staphylococcus aureus [5], 512 µg/mL (≈ 1030 µM); in the data set on Pseudomonas aeruginosa [6], 128 µg/mL (≈ 259 µM). Further, the MIC with Staphylococcus aureus [7] was found to be 512 µg/mL (≈ 1030 µM); in the data set with Escherichia coli [8] it was 512 µg/mL (≈ 1030 µM); in the data set on Acinetobacter baumannii, 128 µg/mL (≈ 259 µM); in the data set with Pseudomonas aeruginosa [9], 32 µg/mL (≈ 64.6 µM); in the data set with Enterococcus faecalis it was 512 µg/mL (≈ 1030 µM). This molecule also gave an HC50 at 2 h in data set [4] of 181 µg/mL.

With `CCn1cc(/C=C(/C(=O)c2nccs2)n2cnc3cc(Cl)ccc3c2=O)c2ccccc21`, the MIC in the data set with Staphylococcus aureus [1] amounted to 1 µg/mL (≈ 2.17 µM); in the data set with Klebsiella pneumoniae, 512 µg/mL (≈ 1110 µM); in the data set on Staphylococcus aureus [2], 512 µg/mL (≈ 1110 µM); in the data set on Escherichia coli [3], 512 µg/mL (≈ 1110 µM); with Staphylococcus aureus [5], 512 µg/mL (≈ 1110 µM); in the data set on Pseudomonas aeruginosa [6], 128 µg/mL (≈ 278 µM). In addition, the MIC is 512 µg/mL (≈ 1110 µM) with Staphylococcus aureus [7]; 512 µg/mL (≈ 1110 µM) with Escherichia coli [8]; 128 µg/mL (≈ 278 µM) in the data set with Acinetobacter baumannii; 32 µg/mL (≈ 69.4 µM) with Pseudomonas aeruginosa [9]; 512 µg/mL (≈ 1110 µM) in the data set on Enterococcus faecalis. The same molecule returned an HC50 at 2 h in data set [4] of over 250 µg/mL.

Consider `O=C(/C(=C/c1ccc(Cl)cc1Cl)n1cnc2cc(Cl)ccc2c1=O)c1nccs1`, for which the MIC with Staphylococcus aureus [1] is 2 µg/mL (≈ 4.32 µM); with Klebsiella pneumoniae, 1 µg/mL (≈ 2.16 µM); in the data set on Staphylococcus aureus [2], 8 µg/mL (≈ 17.3 µM); with Escherichia coli [3] it was 2 µg/mL (≈ 4.32 µM); in the data set on Staphylococcus aureus [5], 1 µg/mL (≈ 2.16 µM); in the data set with Pseudomonas aeruginosa [6], 8 µg/mL (≈ 17.3 µM). Moreover, the MIC came to 32 µg/mL (≈ 69.2 µM) in the data set with Staphylococcus aureus [7]; 2 µg/mL (≈ 4.32 µM) in the data set on Escherichia coli [8]; 16 µg/mL (≈ 34.6 µM) in the data set with Acinetobacter baumannii; 1 µg/mL (≈ 2.16 µM) in the data set with Pseudomonas aeruginosa [9]; 8 µg/mL (≈ 17.3 µM) in the data set on Enterococcus faecalis. The molecule further showed a 50% haemolytic concentration (HC50) at 2 h in [4] of 176 µg/mL.

Turning to `O=C(/C(=C/c1ccc[nH]1)n1cnc2cc(Cl)ccc2c1=O)c1nccs1`, the MIC with Staphylococcus aureus [1] amounted to 2 µg/mL (≈ 5.22 µM); in the data set with Klebsiella pneumoniae it was 256 µg/mL (≈ 669 µM); with Staphylococcus aureus [2] it was 512 µg/mL (≈ 1340 µM); with Escherichia coli [3], 64 µg/mL (≈ 167 µM); in the data set on Staphylococcus aureus [5], 512 µg/mL (≈ 1340 µM); in the data set with Pseudomonas aeruginosa [6] it was 256 µg/mL (≈ 669 µM). Moreover, the MIC was determined as 512 µg/mL (≈ 1340 µM) with Staphylococcus aureus [7]; 256 µg/mL (≈ 669 µM) in the data set with Escherichia coli [8]; 64 µg/mL (≈ 167 µM) in the data set with Acinetobacter baumannii; 256 µg/mL (≈ 669 µM) with Pseudomonas aeruginosa [9]; 512 µg/mL (≈ 1340 µM) with Enterococcus faecalis. The molecule further returned an HC50 at 2 h in data set [4] of 203 µg/mL.

As to `O=C(/C(=C/c1ccc(C(F)(F)F)cc1)n1cnc2cc(F)ccc2c1=O)c1nccs1`, the MIC in the data set with Staphylococcus aureus [1] worked out at 4 µg/mL (≈ 8.98 µM); in the data set on Klebsiella pneumoniae, 2 µg/mL (≈ 4.49 µM); in the data set with Staphylococcus aureus [2], 8 µg/mL (≈ 18 µM); in the data set with Escherichia coli [3] it was 4 µg/mL (≈ 8.98 µM); with Staphylococcus aureus [5] it was 2 µg/mL (≈ 4.49 µM); in the data set on Pseudomonas aeruginosa [6], 16 µg/mL (≈ 35.9 µM). For the same molecule, the MIC in the data set with Staphylococcus aureus [7] was found to be 16 µg/mL (≈ 35.9 µM); with Escherichia coli [8], 8 µg/mL (≈ 18 µM); in the data set on Acinetobacter baumannii, 1 µg/mL (≈ 2.25 µM); in the data set with Pseudomonas aeruginosa [9] it was 4 µg/mL (≈ 8.98 µM); in the data set with Enterococcus faecalis, 4 µg/mL (≈ 8.98 µM). Also, the HC50 at 2 h in data set [4] was over 250 µg/mL.

The values above are taken from ChEMBL document CHEMBL5036317, “Identification of Unique Quinazolone Thiazoles as Novel Structural Scaffolds for Potential Gram-Negative Bacterial Conquerors” (J Med Chem, 2021).
